# Experimental data: ChEMBL document CHEMBL1201862, “PubChem BioAssay data set” (2004)
#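 How tested: cells in 96-well plates exposed to compound for 48 hours at five concentrations. Abbreviation: GI50, concentration required for 50% inhibition of growth.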 Calls of active or inactive are those of the source. No stated cut-off is given here; in the data, active = GI50 up to about 1.1 µM and inactive = higher.
# Tests used:
# Test in all cases: DTP human tumour cell line panel, 48 h
# [1] = test system: Hs-578T
# [2] = test system: SNB-19
# [3] = test system: NCI-H522
# [4] = test system: U-251
# [5] = test system: SN12C
# [6] = test system: OVCAR-8
# [7] = test system: MDA-MB-435
# [8] = test system: HCC 2998
# [9] = test system: 786-0
# [10] = test system: CAKI-1
# [11] = test system: HT-29
# [12] = test system: SK-OV-3
# [13] = test system: SF-295
# [14] = test system: MCF7
# [15] = test system: UO-31
# [16] = test system: NCI-H226
# [17] = test system: RXF 393
# [18] = test system: A549
# [19] = test system: RPMI-8226
# [20] = test system: HCT-116
SMILES,GI50 [1],GI50 [2],GI50 [3],GI50 [4],GI50 [5],GI50 [6],GI50 [7],GI50 [8],GI50 [9],GI50 [10],GI50 [11],GI50 [12],GI50 [13],GI50 [14],GI50 [15],GI50 [16],GI50 [17],GI50 [18],GI50 [19],GI50 [20]
c1ccc(CNc2c3c(nc4ccccc24)CCC3)cc1,27.2 µM (inactive),23 µM (inactive),15.7 µM (inactive),14.9 µM (inactive),16.4 µM (inactive),14.1 µM (inactive),15.3 µM (inactive),13.5 µM (inactive),13.4 µM (inactive),15.3 µM (inactive),5.52 µM (inactive),15.4 µM (inactive),6.84 µM (inactive),13.8 µM (inactive),11.4 µM (inactive),17.1 µM (inactive),14 µM (inactive),15.1 µM (inactive),10 µM (inactive),9.1 µM (inactive)
CN(C)CCCN1c2ccccc2CCc2cc([N+](=O)[O-])ccc21,31.8 µM (inactive),28.6 µM (inactive),24.5 µM (inactive),26.3 µM (inactive),22.9 µM (inactive),24.6 µM (inactive),21.6 µM (inactive),17.7 µM (inactive),24.5 µM (inactive),26.8 µM (inactive),21.4 µM (inactive),–,18.9 µM (inactive),27.3 µM (inactive),22.2 µM (inactive),24 µM (inactive),14.2 µM (inactive),24.6 µM (inactive),21.5 µM (inactive),20.5 µM (inactive)
O=C1CC2SC(COCc3ccccc3)(CCN2Cc2ccccc2)C1 (configuration not stated),> 100 µM (inactive),> 100 µM (inactive),56.8 µM (inactive),66.8 µM (inactive),> 100 µM (inactive),> 100 µM (inactive),51.6 µM (inactive),> 100 µM (inactive),> 100 µM (inactive),> 100 µM (inactive),31.6 µM (inactive),> 100 µM (inactive),61.2 µM (inactive),31 µM (inactive),34.7 µM (inactive),87.3 µM (inactive),> 100 µM (inactive),51.2 µM (inactive),30.2 µM (inactive),44.2 µM (inactive)
CC(C)(CC(O)C#N)/[N+]([O-])=[N+](\[O-])C(C)(C)CC(O)C#N (configuration not stated),12.2 µM (inactive),84.3 µM (inactive),13.8 µM (inactive),26.5 µM (inactive),19.3 µM (inactive),32.3 µM (inactive),32.9 µM (inactive),17.2 µM (inactive),18.2 µM (inactive),10.9 µM (inactive),28.4 µM (inactive),29.8 µM (inactive),35.7 µM (inactive),20.7 µM (inactive),26.9 µM (inactive),25.6 µM (inactive),15.9 µM (inactive),57.4 µM (inactive),19.4 µM (inactive),15.2 µM (inactive)
Cc1ccc(S(=O)(=O)Nn2c(O)c(C#N)c(-c3ccc(N(C)C)cc3)c(C#N)c2=O)cc1,> 50 µM (inactive),> 50 µM (inactive),> 50 µM (inactive),> 50 µM (inactive),> 50 µM (inactive),> 50 µM (inactive),> 50 µM (inactive),> 50 µM (inactive),> 50 µM (inactive),> 50 µM (inactive),> 50 µM (inactive),0.142 µM (active),0.023 µM (active),> 50 µM (inactive),–,> 50 µM (inactive),> 50 µM (inactive),> 50 µM (inactive),9.75 µM (inactive),> 50 µM (inactive)
O=C1c2ccccc2C(=O)c2c1oc(=O)c1ccccc21,6.43 µM (inactive),8.75 µM (inactive),4.07 µM (inactive),2.96 µM (inactive),3.49 µM (inactive),2 µM (inactive),1.06 µM (active),3.21 µM (inactive),5.35 µM (inactive),6.21 µM (inactive),1.4 µM (inactive),9.25 µM (inactive),3.83 µM (inactive),2.21 µM (inactive),5.22 µM (inactive),8.93 µM (inactive),4.48 µM (inactive),7.46 µM (inactive),3.63 µM (inactive),1.03 µM (active)
CC1CC(C#N)=C2NCCCCN2C1=O (configuration not stated),> 100 µM (inactive),> 100 µM (inactive),> 100 µM (inactive),> 100 µM (inactive),> 100 µM (inactive),> 100 µM (inactive),> 100 µM (inactive),> 100 µM (inactive),> 100 µM (inactive),> 100 µM (inactive),> 100 µM (inactive),> 100 µM (inactive),> 100 µM (inactive),> 100 µM (inactive),> 100 µM (inactive),> 100 µM (inactive),> 100 µM (inactive),> 100 µM (inactive),> 100 µM (inactive),–
